Experimental data as given in PubChem BioAssay (NCI).
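In this assay, cells in 96-well plates receive the compound at five concentrations for 48 hours. Endpoints are linearly interpolated between the surrounding concentrations. Here, GI50 denotes the concentration required for 50% inhibition of growth. At the TGI there is no net growth.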

Key:
Assay in all cases: growth of human tumour cells (NCI), 48 h
[1] = test system: EKVX NSCLC
[2] = test system: CCRF-CEM leukemia
[3] = test system: HCT-116 colon
[4] = test system: PC-3 prostate
[5] = test system: DU-145 prostate
[6] = test system: NCI-H226 lung
[7] = test system: SK-MEL-5 melanoma
[8] = test system: OVCAR-5 ovarian
[9] = test system: BT-549 breast
[10] = test system: SNB-75 CNS

O=[N+]([O-])c1ccc(C=Cc2ccccc2)cc1.[C-]#[O+].[C-]#[O+].[C-]#[O+].[Cr]
GI50 [1]: 2.93 µM | TGI [1]: 30 µM | GI50 [2]: 2.72 µM | TGI [2]: > 100 µM | GI50 [3]: 14.8 µM | TGI [3]: > 100 µM | GI50 [4]: 43.3 µM | TGI [4]: > 100 µM | GI50 [5]: 24.3 µM | TGI [5]: > 100 µM | GI50 [6]: 27.8 µM | TGI [6]: > 100 µM | GI50 [7]: 4.68 µM | TGI [7]: 29.2 µM | GI50 [8]: > 100 µM | TGI [8]: > 100 µM | GI50 [9]: 24.1 µM | TGI [9]: > 100 µM | GI50 [10]: 4.46 µM | TGI [10]: 37.8 µM

O=C(O)CN1CCN(CC(=O)O)CC(=O)[O][Hg][O]C(=O)C1
GI50 [1]: 21 µM | TGI [1]: 41.5 µM | GI50 [2]: 3.96 µM | TGI [2]: 32 µM | GI50 [3]: 17.9 µM | TGI [3]: 33.7 µM | GI50 [4]: 16.5 µM | TGI [4]: 30.5 µM | GI50 [5]: 27.8 µM | TGI [5]: > 61.9 µM | GI50 [6]: > 100 µM | TGI [6]: > 100 µM | GI50 [7]: 20.5 µM | TGI [7]: > 57 µM | GI50 [8]: 18.7 µM | TGI [8]: 38.5 µM | GI50 [9]: 19.5 µM | TGI [9]: 34.8 µM | GI50 [10]: 23.6 µM | TGI [10]: 66.5 µM

COc1cccc(OC(=O)c2ccc(C(F)(F)F)nc2Nc2cc(Cl)ccc2C)c1
GI50 [1]: 6.6 µM | TGI [1]: 39.3 µM | GI50 [2]: 2.12 µM | TGI [2]: 5.13 µM | GI50 [3]: 16.9 µM | TGI [3]: 55.8 µM | GI50 [4]: 4.47 µM | TGI [4]: > 100 µM | GI50 [5]: 9.01 µM | TGI [5]: > 100 µM | GI50 [6]: 4.88 µM | TGI [6]: 31.5 µM | GI50 [7]: 2.63 µM | TGI [7]: 12.5 µM | GI50 [8]: 15.1 µM | TGI [8]: 47.4 µM | GI50 [9]: 7.63 µM | TGI [9]: 41.7 µM | GI50 [10]: 9.04 µM | TGI [10]: > 100 µM

O=C1c2ccccc2-c2cc([N+](=O)[O-])c([N+](=O)[O-])cc21
TGI [1]: 4.11 µM | TGI [2]: 0.958 µM | TGI [3]: 6.23 µM | TGI [4]: 2.93 µM | TGI [5]: 3.28 µM | TGI [6]: 12.6 µM | TGI [7]: 3.94 µM | TGI [8]: 5.41 µM | TGI [9]: 3.79 µM | TGI [10]: 3.39 µM

O=C1c2c(c3c4ccccc4[nH]c3c3ccc4ccccc4c23)C(=O)N1CCN1CCNCC1
GI50 [1]: 1.59 µM | TGI [1]: 3.15 µM | GI50 [2]: 1.33 µM | TGI [2]: 4.22 µM | GI50 [3]: 1.59 µM | TGI [3]: 3.06 µM | GI50 [4]: 1.68 µM | TGI [4]: 3.67 µM | GI50 [5]: 1.73 µM | TGI [5]: 3.25 µM | GI50 [6]: 11.7 µM | TGI [6]: 33.3 µM | GI50 [7]: 1.78 µM | TGI [7]: 3.31 µM | GI50 [8]: 1.72 µM | TGI [8]: 3.12 µM | GI50 [9]: 1.58 µM | TGI [9]: 2.97 µM | GI50 [10]: 1.47 µM | TGI [10]: 2.82 µM

Cc1cc(S(=O)(=O)/N=C(/N)Nc2ccccc2O)c(SCc2ccccc2)cc1Cl
GI50 [1]: 11 µM | TGI [1]: 37.8 µM | GI50 [2]: 5.95 µM | TGI [2]: 39.8 µM | GI50 [3]: 15.1 µM | TGI [3]: 31.4 µM | GI50 [4]: 13.9 µM | TGI [4]: 32.4 µM | GI50 [5]: 23.9 µM | TGI [5]: 79.5 µM | GI50 [6]: 33.1 µM | TGI [6]: > 100 µM | GI50 [7]: 14.6 µM | TGI [7]: 30.5 µM | GI50 [8]: 19.8 µM | TGI [8]: 35.9 µM | GI50 [9]: 8.2 µM | TGI [9]: 22.8 µM | GI50 [10]: 19.3 µM | TGI [10]: 39.2 µM

CC(C)C[C@H](NC(=O)CNC(=O)c1cc(Cl)ccc1Cl)B1OC(=O)CC(CC(=O)O)(C(=O)O)O1 (stereo not given in full)
GI50 [1]: 0.369 µM | TGI [1]: 30.8 µM | GI50 [2]: 0.0299 µM | TGI [2]: > 100 µM | GI50 [3]: 0.0267 µM | TGI [3]: 0.0711 µM | GI50 [4]: 0.105 µM | TGI [4]: 1.82 µM | GI50 [5]: 0.0804 µM | TGI [5]: 14.8 µM | GI50 [6]: 0.0141 µM | TGI [6]: 0.0325 µM | GI50 [7]: 0.0177 µM | TGI [7]: 0.0467 µM | GI50 [8]: 0.0928 µM | TGI [8]: 1.2 µM | GI50 [9]: 0.0324 µM | TGI [9]: 0.126 µM | GI50 [10]: 0.182 µM | TGI [10]: 0.504 µM

CCc1ccc2c(c1)N(CCO)C1=C(C(=O)OC1)C2c1cccc(Br)c1 (stereo not given)
GI50 [1]: 2.45 µM | TGI [1]: 20.6 µM | GI50 [2]: 0.351 µM | TGI [2]: 15.6 µM | GI50 [3]: 0.449 µM | TGI [3]: 14 µM | GI50 [4]: 0.491 µM | TGI [4]: 16.2 µM | GI50 [5]: 0.658 µM | TGI [5]: 11.3 µM | GI50 [6]: 0.988 µM | TGI [6]: 13.2 µM | GI50 [7]: 0.256 µM | TGI [7]: 8.67 µM | GI50 [8]: 4.37 µM | TGI [8]: 20.8 µM | GI50 [9]: 1.35 µM | TGI [9]: 19.7 µM | GI50 [10]: 0.307 µM | TGI [10]: 8.3 µM

CO/N=C(\COc1ccc2c(c1)[nH]c1ccccc12)c1ccc(F)cc1
GI50 [1]: 65.9 µM | TGI [1]: > 100 µM | GI50 [2]: 22.6 µM | TGI [2]: 53.9 µM | GI50 [3]: 20.6 µM | TGI [3]: > 100 µM | GI50 [4]: 30.6 µM | TGI [4]: > 100 µM | GI50 [5]: > 100 µM | TGI [5]: > 100 µM | GI50 [6]: > 100 µM | TGI [6]: > 100 µM | GI50 [7]: > 100 µM | TGI [7]: > 100 µM | GI50 [8]: > 100 µM | TGI [8]: > 100 µM | GI50 [9]: > 100 µM | TGI [9]: > 100 µM | GI50 [10]: 9.17 µM | TGI [10]: 89.6 µM

CN(C)CCCn1c(=O)c2ccccc2c2ccccc21
GI50 [1]: 13.6 µM | TGI [1]: 44.9 µM | GI50 [2]: 22 µM | TGI [2]: > 100 µM | GI50 [3]: 4.74 µM | TGI [3]: > 100 µM | GI50 [4]: 18.2 µM | TGI [4]: 54.2 µM | GI50 [5]: 18.5 µM | TGI [5]: 52 µM | GI50 [6]: 12.1 µM | TGI [6]: 38.5 µM | GI50 [7]: 12.3 µM | TGI [7]: 24.9 µM | GI50 [8]: 22.6 µM | TGI [8]: 69.7 µM | GI50 [9]: 29.5 µM | TGI [9]: 73.9 µM | GI50 [10]: 13.9 µM | TGI [10]: 28.6 µM

O=C(/C=C/c1cc2ccccc2[nH]c1=O)/C=C/c1cc2ccccc2[nH]c1=O
GI50 [1]: 22.5 µM | TGI [1]: > 100 µM | GI50 [2]: 7.97 µM | TGI [2]: > 100 µM | GI50 [3]: 1.28 µM | TGI [3]: 2.09 µM | GI50 [4]: > 21.5 µM | TGI [4]: > 81.1 µM | GI50 [5]: 12.3 µM | TGI [5]: > 70.3 µM | GI50 [6]: 14.9 µM | TGI [6]: 38.1 µM | GI50 [7]: 23.5 µM | TGI [7]: > 100 µM | GI50 [8]: > 49 µM | TGI [8]: > 100 µM | GI50 [9]: 6.86 µM | TGI [9]: 12.4 µM | GI50 [10]: > 26.3 µM | TGI [10]: > 67.5 µM
